Test results taken from patent US20250073242A1, “SLC26A3 INHIBITORS AND USE THEREOF” (THE REGENTS OF THE UNIVERSITY OF CALIFORNIA, priority 2021, published 2025).
pIC50: −log10 of the molar value. Values belong to the compound of their own block, whether it stands above or below them.

Assays:
SLC26A3 [1] = biological target: T1, SLC26A3 (Mus musculus, UniProt Q9WVC8); test: SLC26A3 inhibition, concentration-dependence (high throughput screening and structure-activity studies); format: cell-based
T1 sequence (Q9WVC8 1-757): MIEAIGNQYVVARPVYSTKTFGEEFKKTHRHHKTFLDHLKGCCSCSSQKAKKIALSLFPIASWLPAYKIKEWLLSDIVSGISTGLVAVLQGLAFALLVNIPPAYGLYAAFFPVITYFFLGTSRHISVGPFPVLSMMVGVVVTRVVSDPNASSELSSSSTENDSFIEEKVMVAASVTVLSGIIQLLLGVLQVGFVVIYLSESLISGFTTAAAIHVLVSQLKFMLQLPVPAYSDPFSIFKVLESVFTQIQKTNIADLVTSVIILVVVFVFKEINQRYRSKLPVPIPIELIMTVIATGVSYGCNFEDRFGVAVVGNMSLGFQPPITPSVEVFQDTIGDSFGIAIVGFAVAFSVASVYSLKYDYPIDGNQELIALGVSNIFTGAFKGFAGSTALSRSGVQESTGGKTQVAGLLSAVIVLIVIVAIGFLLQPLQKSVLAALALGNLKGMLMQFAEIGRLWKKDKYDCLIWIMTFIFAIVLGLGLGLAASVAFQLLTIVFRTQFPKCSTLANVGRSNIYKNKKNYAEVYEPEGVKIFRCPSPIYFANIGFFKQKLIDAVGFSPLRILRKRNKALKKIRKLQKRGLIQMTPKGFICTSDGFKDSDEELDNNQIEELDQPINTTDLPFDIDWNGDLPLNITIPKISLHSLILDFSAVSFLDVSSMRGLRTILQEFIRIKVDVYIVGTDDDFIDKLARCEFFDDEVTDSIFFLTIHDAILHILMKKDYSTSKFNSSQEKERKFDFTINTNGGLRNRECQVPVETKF

DRA = biological target: T2, DRA (Mus musculus, UniProt Q9WVC8); test: Extracellular action: reversal of DRA inhibition after washout; format: cell-based; conditions: cells incubated 10 min at 5 times IC50; measured at 20-30 second after washout
T2 sequence (Q9WVC8 1-757): T1 sequence (Q9WVC8 1-757)
Method: Inhibition was then measured without washout and at 20-30 second after washout.

[2] = test system: mouse distal colonic loops; test: Oxalate absorption in closed distal colonic loops; format: in vivo; conditions: luminal 10 μM, 500 μM oxalate, 60 min
Method: To investigate DRAinh-A270 inhibition of intestinal oxalate transport, experiments were conducted using closed distal colonic loops in which SLC26A3 is the major apical membrane anion transporter. Colonic loops were injected with the solution containing 500 μM sodium oxalate and loop fluid was removed at 60 min to quantify remaining oxalate concentration. To avoid confounding effects of fluid absorption, Cl^−-free solution with amiloride (to block ENaC) was used.

SLC26A3 [3] = biological target: T1, SLC26A3; test: Transepithelial oxalate transport in FRT monolayers expressing SLC26A3; format: cell-based; conditions: pretreatment 15 min, even at 0.1 μM; 500 μM oxalate gradient
Method: In order to determine the effects of DRAinh-A270 on oxalate transport at physiologically relevant concentrations, transepithelial oxalate transport was measured in Fischer rat thyroid (FRT) monolayers expressing SLC26A3 (FRT-A3 cells) permeable filters and exposed to a 500 μM oxalate concentration gradient.
Oxalate transport rate plotted for studies done in FRT cells expressing SLC26A3 (FRT-A3) pretreated with indicated concentrations of DRAinh-A270 (or DMSO control) for 15 min prior to application of the oxalate gradient. FRT cells not expressing SLC26A3 (FRT-null) are shown as controls. Mean±S.E.M., n=6-12 wells per condition. One-way analysis of variance with post hoc Newman-Keuls multiple comparisons test, **p<0.01, ns: not significant.

- pIC50 (SLC26A3 [1]; Class F, Table 2): 6.33
SMILES: Cc1cccc(NS(=O)(=O)c2nnc(NC(=O)c3cccc(C)c3)s2)c1 [DRAinh-F0165]

- pIC50 (SLC26A3 [1]; Class H, Table 4): 6.47
SMILES: Cc1ccccc1COc1ccc2oc(-c3ccccc3)c(C(=O)O)c2c1 [DRAinh-H0696]

- pIC50 (SLC26A3 [1]; Class E, Table 1): 6.51
SMILES: Cc1ccc(N2C(=O)c3ccc(C(=O)Nc4ccccc4C(=O)O)cc3C2=O)cc1C [DRAinh-E2333]

- pIC50 (SLC26A3 [1]; Class F, Table 2): 6.51
SMILES: COc1cccc(C(=O)Nc2nnc(S(=O)(=O)Nc3cccc(C)c3)s2)c1 [DRAinh-F0170]

- pIC50 (SLC26A3 [1]; Class H, Table 4): 6.72
SMILES: Cc1ccc(COc2ccc3oc(-c4ccccc4)c(C(=O)O)c3c2)cc1 [DRAinh-H0163]

- reversal of inhibition after washout (DRA): no reversal
- increased oxalate transport in FRT-A3 cells (SLC26A3 [3]): largely blocked
SMILES: Cc1c(CC(=O)O)c(=O)oc2c(C)c(OCc3cccc(I)c3)ccc12 [DRAinh-A270]
- reduction of oxalate absorption compared to vehicle control [2]: ~70%

- pIC50 (SLC26A3 [1]; Class H, Table 4): 5.64
SMILES: O=C(O)c1c(-c2ccccc2)oc2ccc(OCc3ccc(Cl)c(Cl)c3)cc12 [DRAinh-H0493]

- pIC50 (SLC26A3 [1]; Class E, Table 1): 6.16
SMILES: CC(C)CN1C(=O)c2ccc(C(=O)Nc3ccccc3C(=O)O)cc2C1=O [DRAinh-E0078]
